Test results from patent US8481011B2, “Use of polyunsaturated compounds as whitening agents” (Pierre Fabre Dermo-Cosmetique, priority 2005, dated 2013).

Columns and labels:
Assay type in all cases: cell-based
[1] = system: B16 murine melanocytes; assay: MTT cellular respiration toxicity test on B16 melanocytes; details: for IC50: toxicity; for % MTT: concentration 10 μM, cell viability
Source text: (§1) The objective of these tests is to measure the toxicity of the new retinoids on keratinocyte and melanocyte cells.
(§2) The method used is a cellular respiration test with the MTT (thiazolile blue) in order to assess cells that are still living.
(§3) The MTT test gives a cellular respiration index; this involves a substrate of dehydrogenases in general and dehydrogenase succinate in particular. The MTT, yellow, partially soluble in water, is reduced in a violet compound, insoluble in water, but soluble in organic solvents (DMSO).
(§4) Prepare a 12 mM solution (5 mg/ml) of MTT in water or the culture medium.
(§5) Dilute this solution to 1:10 in the supernatant fluid or suspension of cells (final MTT 1.2 mM or 0.5 mg/ml), then leave to incubate for 3 hours at 37° C.
(§6) Aspirate the supernatant fluid, the dissolve the violet crystals of formazan MTT in DMSO.
(§7) Read the optical density of the solution at 550 nm (dilute beforehand as required).
(§8) Calibration line: MTT formazan 0-200 μM.

[2] = system: BDV II murine keratinocytes; assay: MTT cellular respiration toxicity test on BDV II keratinocytes; details: for % MTT / IC50: BDV II murine keratinocytes; for % MTT: concentration 10 μM, cell viability; for IC50: toxicity; for toxicity ranking on BDV II keratinocytes: ranking in words, viability according to concentration
Source text: as §1, §2, §3, §4, §5, §6, §7, §8

[3] = system: B16 murine melanocytes; assay: Study of depigmenting activity (melanin dosage); details: at infratoxic doses, in words
Description: The objective of these tests is to measure the depigmenting activity of new retinoids according to their concentration.
The melanin is dosed according to the method described by S. Besson et al., Dermatology Archives. 133:331-336 (1997)′.
Digestion plug: 100 mM NaCl, to mm-Tri-HCl, 1% SDS, 50 mM EDTA, pH 8.
For 50 ml: 292 mg NaCl, 299 mg tris acid, 73 mg tris base, 931 mg EDTA disodium dehydrate, 500 mg SDS, adjust pH (≈5.5) to 8.0 with concentrated NaOH.
K proteinase 10 mg/ml in the digestion plug.
Prepare tubes containing synthetic melanin at concentrations of between 2.5 and 80 μg/ml in the DMSO.
For the cells, determine the protein concentration beforehand, centrifuge in 2 ml tubes and remove the supernatant.
In 2 ml tubes containing a cell remainder, add 300 μl of digestion buffer and 3 μl of K proteinase.
Incubate for 2 hours at 50° C., then a night at 37° C.
Top up the volume to 1 ml with water, then sound test.
Centrifuge for 10 minutes at 20,000 g, drain off all the supernatant (clear) then dissolve the dry melanin remainder in 500-1000 μl of DMSO.
Measure the absorbency at 375 nm and check the spectrum.

Compound | IC50 ([1]; Mus musculus, Melanocyte) [µM] | % MTT [1] [%] | % MTT [2] [%] | IC50 ([2]; Mus musculus, Keratinocyte) [µM] | toxicity ranking on BDV II keratinocytes [2] | depigmenting activity (melanin) [3] | IC50 [1] [µM] | IC50 [2] [µM]
CC(=O)OC1CCC(C)(C)C(/C=C/C(C)=C/C=C/C(C)=C/C(=O)OC(C)(C)C)=C1C (centres unmarked) [Example 8, tert-butylic ester of (2E,4E,6E,8E)-9-[3-(3-acetoxy)-2,6,6-trimethyl-cyclohex-1-enyl]-3,7-dimethyl-nona-2,4,6,8-tetraenoic acid] | 60 | 82 | 82 | > 100 | least toxic | net depigmenting efficacy promotes |  | 
COC(=O)/C=C(C)/C=C/C=C(C)/C=C/C1=C(C)C(=O)CCC1(C)C [Example 5, Methylic ester of (2E,4E,6E,8E)-9-[3-(3-oxo)-2,6,6-trimethyl-cyclohex-1-enyl]-3,7-dimethyl-nona-2,4,6,8-tetraenoic acid] |  | 86 | 59 |  | then examples 5 and 6 | net depigmenting efficacy promotes | 60 | 15
CC1=C(/C=C/C(C)=C/C=C/C(C)=C/C(=O)O)C(C)(C)CCC1O (centres unmarked) [Example 7, (2E,4E,6E,8E)-9-[3-(3-hydroxy)-2,6,6-trimethyl-cyclohex-1-enyl]-3,7-dimethyl-nona-2,4,6,8-tetraenoic acid] | 35 | 69 | 86 | > 100 | least toxic |  |  | 
CC1=C(/C=C/C(C)=C/C=C/C(C)=C/C(=O)O)C(C)(C)CCC1 [RA, Retinoic acid, reference compound] | 10 | 50 | 40 | 3 |  |  |  | 
CC1=C(/C=C/C(C)=C/C=C/C(C)=C/C(=O)O)C(C)(C)CCC1=O [Example 405, 4-oxoretinoic acid] |  | 76 | 78 |  |  |  | > 100 | > 100
CC1=C(/C=C/C(C)=C/C=C/C(C)=C/C(=O)OC(C)(C)C)C(C)(C)CCC1=O [Example 3, tert-butylic ester of (2E,4E,6E,8E)-3,7-dimethyl-9-(2,6,6-trimethyl-3-oxo-cyclohex-1-enyl)-nona-2,4,6,8-tetraenoic acid] | 30 | 80 | 85 | 60 |  | net depigmenting efficacy promotes |  | 
CC(=O)OC/C=C(C)/C=C/C=C(C)/C=C/C1=C(C)C(=O)CCC1(C)C [Example 11, (2E,4E,6E,8E)-9-[3-(3-oxo)-2,6,6-trimethyl-cyclohex-1-enyl]-3,7-dimethyl-nona-2,4,6,8-tetraenyl acetate] | 70 | 86 | 60 | 30 |  |  |  | 
CC1=C(/C=C/C(C)=C/C=C/C(C)=C/C(=O)OC(C)(C)C)C(C)(C)CCC1O (centres unmarked) [Example 4, tert-butylic ester of (2E,4E,6E,8E)-9-(3-hydroxy-2,6,6-trimethyl-cyclohex-1-enyl)-3,7-dimethyl-nona-2,4,6,8-tetraenoic acid] | 20 | 62 | 84 | 70 |  |  |  | 
